Measured values taken from ChEMBL document CHEMBL1152375 (Bioorg Med Chem Lett, 2009).
Active and inactive are the calls of the source. No cut-off for these calls is given here.

What was measured:
[1] = molecular target: T1, Hydroxycarboxylic acid receptor 3 (Homo sapiens, UniProt P49019); assay: Agonist activity at GPR109b receptor transfected in CHOK1 cells assessed as inhibition of forskolin-induced cAMP generation by HTRF assay; format: functional, cell-based, CHO-K1
[2] = molecular target: Hydroxycarboxylic acid receptor 2 (Homo sapiens) (UniProt Q8TDS4); assay: Agonist activity at GPR109a receptor transfected in CHOK1 cells assessed as inhibition of forskolin-induced cAMP generation at 30 pM to 100 uM by HTRF assay; format: functional, cell-based; details: CHO-K1
[3] = molecular target: T1, Hydroxycarboxylic acid receptor 3; details: CHO-K1; 30 pM
[4] = molecular target: T1, Hydroxycarboxylic acid receptor 3; assay: Agonist activity at GPR109b receptor transfected in forskolin-stimulated CHOK1 cells assessed as cAMP generation at 10 uM by HTRF assay; format: functional, cell-based; details: CHO-K1

Sequence of Hydroxycarboxylic acid receptor 2 (Homo sapiens) (Q8TDS4 whole entry): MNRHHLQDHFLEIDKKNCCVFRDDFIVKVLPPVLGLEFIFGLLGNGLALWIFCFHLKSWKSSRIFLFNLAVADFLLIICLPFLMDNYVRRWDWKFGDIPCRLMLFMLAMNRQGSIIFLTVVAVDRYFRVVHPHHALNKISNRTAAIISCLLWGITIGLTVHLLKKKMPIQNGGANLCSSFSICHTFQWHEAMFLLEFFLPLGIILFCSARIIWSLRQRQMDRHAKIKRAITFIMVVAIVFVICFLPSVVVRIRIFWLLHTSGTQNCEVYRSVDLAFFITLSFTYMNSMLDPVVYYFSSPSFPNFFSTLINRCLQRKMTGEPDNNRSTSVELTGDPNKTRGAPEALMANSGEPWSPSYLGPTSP
T1 sequence (P49019 whole entry): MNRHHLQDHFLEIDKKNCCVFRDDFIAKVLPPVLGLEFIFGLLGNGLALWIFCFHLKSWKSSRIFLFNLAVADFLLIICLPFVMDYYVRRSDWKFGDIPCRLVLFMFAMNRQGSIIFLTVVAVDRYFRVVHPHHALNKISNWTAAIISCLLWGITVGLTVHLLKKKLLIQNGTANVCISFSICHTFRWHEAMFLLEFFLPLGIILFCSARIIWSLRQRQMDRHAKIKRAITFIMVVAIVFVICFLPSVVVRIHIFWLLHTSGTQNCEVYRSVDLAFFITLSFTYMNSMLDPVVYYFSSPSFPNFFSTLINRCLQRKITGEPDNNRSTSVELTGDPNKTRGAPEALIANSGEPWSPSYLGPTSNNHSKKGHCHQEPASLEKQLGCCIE

SMILES | EC50 [1] [µM] | further results
O=C(O)c1cc(N(Cc2cccc(F)c2)Cc2cccc(F)c2)[nH]n1 | > 10 | 
O=C(O)c1cc(N(Cc2ccc(F)cc2)Cc2ccc(F)cc2)[nH]n1 | > 10 | pEC50 [2]: inactive
O=C(O)c1cc(NCc2ccccc2)[nH]n1 |  | pEC50 [3]: inactive
O=C(O)c1cc(N(Cc2ccc(F)cc2)Cc2ccsc2)[nH]n1 |  | pEC50 [3]: inactive
CC(C)CCN(CCC(C)C)c1cc(C(=O)O)n[nH]1 | > 10 | 
O=C(O)c1cc(N(Cc2ccsc2)Cc2ccco2)[nH]n1 | > 10 | 
Cc1ccc(CN(Cc2ccc(C)s2)c2cc(C(=O)O)n[nH]2)s1 |  | pEC50 [3]: inactive
O=C(O)c1cc(N(Cc2ccc(Br)s2)Cc2ccc(Br)s2)[nH]n1 |  | pEC50 [3]: inactive
O=C(O)c1cc(N(CC2CCCCC2)CC2CCCCC2)[nH]n1 |  | pEC50 [3]: inactive
O=C(O)c1cc(N(Cc2ccoc2)Cc2ccsc2)[nH]n1 |  | pEC50 [3]: inactive

The next lines start with results.

EC50 [1] [µM] | SMILES | further results
8.32 | CCCN(CCC)c1cc(C(=O)O)n[nH]1 | 
> 10 | CCCCCCN(CCCCCC)c1cc(C(=O)O)n[nH]1 | 
8.91 | O=C(O)c1cc(N(Cc2ccoc2)Cc2ccoc2)[nH]n1 | pEC50 [2]: inactive
6.76 | CCCC(C)Nc1cc(C(=O)O)n[nH]1 (stereo unspecified) | pEC50 [2]: inactive
3.98 | O=C(O)c1cc(N(CC2CC2)CC2CC2)[nH]n1 | pEC50 [2]: inactive
0.851 | O=C(O)c1cc(N(Cc2ccccc2)Cc2ccccc2)[nH]n1 | 
0.257 | O=C(O)c1cc(N(Cc2cccs2)Cc2cccs2)[nH]n1 | 
4.47 | CCC(C)Nc1cc(C(=O)O)n[nH]1 (stereo unspecified) | pEC50 [2]: inactive
0.0417 | C=CCNc1ccc(C(=O)O)cn1 | Activity [4]: 200%
5.62 | O=C(O)c1cc(N(CCc2ccccc2)CCc2ccccc2)[nH]n1 | 
0.141 | O=C(O)c1cc(N(Cc2ccsc2)Cc2cccs2)[nH]n1 | 
0.00316 | O=C(O)c1cc(N(Cc2ccsc2)Cc2ccsc2)[nH]n1 | 
8.71 | O=C(O)c1cc(N(Cc2ccccc2F)Cc2ccccc2F)[nH]n1 | pEC50 [2]: inactive
0.0145 | O=C(O)c1cc(N(Cc2ccccc2)Cc2ccsc2)[nH]n1 | 
